Laboratory results taken from PMC5041986 (Oncotarget, 2016).
Like-named read-outs stand apart in the source and are kept apart here.

Legend:
Hep3B cells = assay: MTT cell viability assay; format: cell-based; conditions: 72 h, mean
Experimental: (§3) Cells were seeded in 96-well plates and exposed to DMSO, or indicated compounds for 72 hours. Cell viability was assessed using the 3-(4,5-dimethylthiazol-2-yl)-2,5-diphenyltetrazolium bromide (MTT) assay as described previously [46]. Briefly, 100 μl of 0.5 mg/ml MTT were added to each well and incubated at 37°C for 1 hour. After that, 100 μl of extraction reagents (0.1 M sodium acetate buffer for suspension cells or DMSO for attached cells) were added to each well to lyse cells and absorbance at 550 nm was measured. Cell viability was expressed as the percentage of surviving cells in drug-treated versus DMSO-treated control cells (which was considered as 100% viability).

PLC/PRF/5 cells = assay: MTT cell viability assay; format: cell-based; conditions: 72 h; for Viability (% of control cells) PLC5/PRF/5 (5 μM): mean
Experimental: as §3

RT-112 cells [1] = assay: MTT cell viability assay; format: cell-based; conditions: 72 h; for Viability (% of control cells) RT-112 (5 μM) / Viability (% of control cells) RT-112 (10 μM): mean
Experimental: as §3

SNU-16 cells = assay: MTT cell viability assay; format: cell-based; conditions: 72 h; for Viability (% of control cells) SNU-16 (5 μM): mean
Experimental: as §3

RT-112 cells [2] = assay: SA-β-galactosidase staining (senescence); format: cell-based
Experimental: Cells were seeded in 6-well plates and treated with indicated agents for 24h. Senescence was measured by Senescence β-Galactosidase Staining Kit according to the manufacture's instruction (Cell Signaling Technology, Danvers, MA, USA).

HepG2 cells = assay: MTT cell viability assay; format: cell-based; conditions: Homo sapiens, HepG2 (liver), 72 h
Experimental: as §3

[3] = tested on: phosphorylation of FGFR1, FGFR3, FRS2, ERK and AKT in RT-112 cells; assay: Western blot of FGFR signaling; format: cell-based
Experimental: (§1) Cells were seeded and treated with indicated compounds at various concentrations for the indicated times. After treatment, cells were harvested by scraping with RIPA buffer containing protease inhibitors and phosphatase inhibitors (Roche Diagnostics Corp., Indianapolis, IN, USA). Total cell lysates were centrifuged at 13,000 g for 30 min and equal amounts of protein were separated by SDS–PAGE and immunoblotted with specific antibodies as previous described. The cells were allowed to recover for 24 h before following treatment. The small interfering RNA (siRNA) for Atg5 (HSS114103, HSS114104, HSS190366), and negative control (siCTL) were purchased from Invitrogen (Carlsbad, CA, USA). Transient transfection was performed by using lipofectamine 2000 according to the manufacture's instructions.

RT4 cells = assay: MTT cell viability assay; format: cell-based; conditions: Homo sapiens, RT-4, RT4 (bladder), 72 h
Experimental: as §3

T24 cells = assay: MTT cell viability assay; format: cell-based; conditions: Homo sapiens, T-24, T24 (bladder), 72 h
Experimental: as §3

RT-112 cells [4] = assay: Flow cytometric cell cycle analysis; format: cell-based; conditions: flow cytometry; for accumulation of the sub-G1 phase (apoptotic cell death): 48 h to 72 h
Experimental: Cells were seeded in 6-well plates and treated with DMSO or indicated compounds at various concentrations for the indicated times. After treatment, the cells were harvested by trypsinization, washed with PBS, and the pellets were fixed in ice-cold 70% ethanol at -20°C overnight. After centrifugation, the cells were incubated for 15 minutes at room temperature in 0.1 mL of phosphate-citric acid buffer (0.2 M NaHPO4, 0.1 M citric acid, and pH 7.8) and then stained with propidium iodide staining buffer containing Triton X-100 (0.1%, v/v), RNase A (100 μg/mL), and propidium iodide (80 μg/mL) for 30 minutes in the dark. DNA contents were analyzed by flow cytometry with CellQuest software (Becton Dickinson, Mountain View, CA, USA). The results were obtained from three independent experiments and the representative data were shown in Supplementary Figure S8 and S9.

KMS-11 cells = assay: MTT cell viability assay; format: cell-based; conditions: Homo sapiens, KMS-11 (myeloma), 72 h
Experimental: as §3

RPMI-8226 cells = assay: MTT cell viability assay; format: cell-based; conditions: Homo sapiens, RPMI-8226 (myeloma), 72 h
Experimental: as §3

HCT-116 cells = assay: MTT cell viability assay; format: cell-based; conditions: Homo sapiens, HCT-116 (colorectal), 72 h
Experimental: as §3

RT-112 tumor xenografts = assay: RT-112 xenograft model; format: in vivo; conditions: for tumor growth inhibition (% TGI): ip, nude mice
Experimental: Tumors were measured weekly using calipers. Tumor volume (mm^3) was calculated from w^2×l/2 (w = width, l= length in mm of the tumor).

CSF1R = molecular target: T1, CSF1R (Homo sapiens, UniProt P07333); assay: KINOMEscan competition-binding assay
T1 construct: purchased DiscoverRx (KINOMEscan service)
Experimental: (§2) The screening is based on a competition-binding assay and the K d values were determined as described previously.

FLT3 = molecular target: T2, FLT3 (Homo sapiens, UniProt P36888); assay: KINOMEscan competition-binding assay
T2 construct: purchased DiscoverRx (KINOMEscan service)
Experimental: as §2

FGFR1 = molecular target: T3, FGFR1 (Homo sapiens, UniProt P11362); assay: KINOMEscan competition-binding assay
T3 construct: purchased DiscoverRx (KINOMEscan service)
T3 sequence (P11362 22-822): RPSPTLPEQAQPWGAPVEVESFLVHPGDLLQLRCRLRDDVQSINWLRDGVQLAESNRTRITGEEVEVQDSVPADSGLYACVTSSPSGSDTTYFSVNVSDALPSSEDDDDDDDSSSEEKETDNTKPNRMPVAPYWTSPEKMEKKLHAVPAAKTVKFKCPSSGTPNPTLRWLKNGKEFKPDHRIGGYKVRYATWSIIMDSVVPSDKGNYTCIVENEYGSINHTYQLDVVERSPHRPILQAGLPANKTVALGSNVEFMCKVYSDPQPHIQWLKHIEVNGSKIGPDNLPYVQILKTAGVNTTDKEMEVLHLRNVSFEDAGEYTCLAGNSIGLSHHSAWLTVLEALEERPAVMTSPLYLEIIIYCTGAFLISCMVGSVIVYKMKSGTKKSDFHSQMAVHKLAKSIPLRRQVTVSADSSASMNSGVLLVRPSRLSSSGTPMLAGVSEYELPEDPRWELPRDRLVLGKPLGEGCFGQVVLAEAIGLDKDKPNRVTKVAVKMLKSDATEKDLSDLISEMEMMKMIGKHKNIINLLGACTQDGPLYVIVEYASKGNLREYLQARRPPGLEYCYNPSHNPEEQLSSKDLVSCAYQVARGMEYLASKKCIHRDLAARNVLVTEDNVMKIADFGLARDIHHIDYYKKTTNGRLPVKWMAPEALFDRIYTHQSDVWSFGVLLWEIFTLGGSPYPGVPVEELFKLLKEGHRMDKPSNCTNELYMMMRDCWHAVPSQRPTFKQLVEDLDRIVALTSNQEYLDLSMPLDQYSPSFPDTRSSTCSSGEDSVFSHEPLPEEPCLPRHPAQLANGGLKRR
Experimental: as §2

FGFR2 = molecular target: T4, FGFR2 (Homo sapiens, UniProt P21802); assay: KINOMEscan competition-binding assay
T4 construct: purchased DiscoverRx (KINOMEscan service)
T4 sequence (P21802 22-821): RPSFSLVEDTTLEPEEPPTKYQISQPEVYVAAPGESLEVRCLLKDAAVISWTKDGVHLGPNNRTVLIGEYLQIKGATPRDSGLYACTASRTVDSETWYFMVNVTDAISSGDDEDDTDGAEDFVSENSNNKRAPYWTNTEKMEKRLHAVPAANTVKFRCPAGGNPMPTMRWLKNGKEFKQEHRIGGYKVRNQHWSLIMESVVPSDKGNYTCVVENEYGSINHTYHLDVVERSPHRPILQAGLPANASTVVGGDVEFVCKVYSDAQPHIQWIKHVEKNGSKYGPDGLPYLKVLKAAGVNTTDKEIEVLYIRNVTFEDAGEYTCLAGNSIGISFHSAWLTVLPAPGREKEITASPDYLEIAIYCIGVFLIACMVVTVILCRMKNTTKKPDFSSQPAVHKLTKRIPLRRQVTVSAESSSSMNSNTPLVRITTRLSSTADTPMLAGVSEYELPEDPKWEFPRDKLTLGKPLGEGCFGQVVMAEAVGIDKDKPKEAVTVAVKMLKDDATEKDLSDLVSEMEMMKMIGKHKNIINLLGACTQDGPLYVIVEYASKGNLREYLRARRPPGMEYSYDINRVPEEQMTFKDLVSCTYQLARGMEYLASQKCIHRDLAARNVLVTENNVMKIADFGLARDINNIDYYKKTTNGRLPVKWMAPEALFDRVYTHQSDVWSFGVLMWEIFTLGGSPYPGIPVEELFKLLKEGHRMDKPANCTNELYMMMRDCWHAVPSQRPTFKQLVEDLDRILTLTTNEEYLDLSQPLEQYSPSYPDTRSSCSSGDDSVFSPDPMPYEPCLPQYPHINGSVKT
Experimental: as §2

TYK2 = molecular target: T5, TYK2 (Homo sapiens, UniProt P29597); assay: KINOMEscan competition-binding assay
T5 construct: purchased DiscoverRx (KINOMEscan service)
Experimental: as §2

VEGFR2 = molecular target: T6, VEGFR2 (Homo sapiens, UniProt P35968); assay: KINOMEscan competition-binding assay
T6 construct: purchased DiscoverRx (KINOMEscan service)
Experimental: as §2

FGFR4 = molecular target: T7, FGFR4 (Homo sapiens, UniProt P22455); assay: KINOMEscan competition-binding assay
T7 construct: purchased DiscoverRx (KINOMEscan service)
T7 sequence (P22455 22-802): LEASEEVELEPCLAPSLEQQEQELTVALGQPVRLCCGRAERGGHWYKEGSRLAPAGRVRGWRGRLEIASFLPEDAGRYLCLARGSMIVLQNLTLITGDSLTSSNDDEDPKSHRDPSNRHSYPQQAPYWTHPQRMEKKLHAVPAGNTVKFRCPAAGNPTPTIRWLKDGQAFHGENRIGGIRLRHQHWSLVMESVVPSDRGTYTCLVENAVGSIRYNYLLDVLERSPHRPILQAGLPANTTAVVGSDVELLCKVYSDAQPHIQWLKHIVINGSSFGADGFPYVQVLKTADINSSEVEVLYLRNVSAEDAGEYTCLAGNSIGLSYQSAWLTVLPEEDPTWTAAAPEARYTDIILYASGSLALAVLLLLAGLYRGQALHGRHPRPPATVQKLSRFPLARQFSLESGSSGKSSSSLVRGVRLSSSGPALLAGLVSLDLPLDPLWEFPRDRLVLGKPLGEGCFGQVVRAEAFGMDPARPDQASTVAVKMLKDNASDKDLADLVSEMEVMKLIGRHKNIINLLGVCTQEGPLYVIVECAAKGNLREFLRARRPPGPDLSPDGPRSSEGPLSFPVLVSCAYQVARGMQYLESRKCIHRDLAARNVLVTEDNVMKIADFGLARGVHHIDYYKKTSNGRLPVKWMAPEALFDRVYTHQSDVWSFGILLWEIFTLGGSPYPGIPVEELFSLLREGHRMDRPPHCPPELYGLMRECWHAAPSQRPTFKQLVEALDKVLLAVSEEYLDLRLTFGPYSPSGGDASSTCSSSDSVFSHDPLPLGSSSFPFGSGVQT
Experimental: as §2

FGFR3 = molecular target: T8, FGFR3 (Homo sapiens, UniProt P22607); assay: KINOMEscan competition-binding assay
T8 construct: purchased DiscoverRx (KINOMEscan service)
T8 sequence (P22607 23-806): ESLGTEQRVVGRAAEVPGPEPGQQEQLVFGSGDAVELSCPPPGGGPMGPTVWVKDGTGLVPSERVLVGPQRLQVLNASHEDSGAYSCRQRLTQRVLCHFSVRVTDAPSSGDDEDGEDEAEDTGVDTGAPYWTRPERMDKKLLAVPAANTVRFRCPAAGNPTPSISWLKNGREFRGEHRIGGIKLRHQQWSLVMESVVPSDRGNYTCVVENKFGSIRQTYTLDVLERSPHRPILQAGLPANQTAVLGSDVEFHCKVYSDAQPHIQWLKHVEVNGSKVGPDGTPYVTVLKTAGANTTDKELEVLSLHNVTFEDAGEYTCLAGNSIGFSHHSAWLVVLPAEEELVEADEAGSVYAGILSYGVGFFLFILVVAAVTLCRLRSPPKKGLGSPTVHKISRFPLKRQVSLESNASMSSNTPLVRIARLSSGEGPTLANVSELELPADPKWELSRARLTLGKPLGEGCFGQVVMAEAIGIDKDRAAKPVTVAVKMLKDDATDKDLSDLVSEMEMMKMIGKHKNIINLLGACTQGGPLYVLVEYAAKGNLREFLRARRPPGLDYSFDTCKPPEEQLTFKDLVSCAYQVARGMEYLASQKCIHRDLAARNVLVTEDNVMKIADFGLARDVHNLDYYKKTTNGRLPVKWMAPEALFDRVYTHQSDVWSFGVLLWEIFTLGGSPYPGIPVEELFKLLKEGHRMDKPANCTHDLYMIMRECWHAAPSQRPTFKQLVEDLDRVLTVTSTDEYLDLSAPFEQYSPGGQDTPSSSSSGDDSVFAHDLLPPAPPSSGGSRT
Experimental: as §2

PDGFRB = molecular target: T9, PDGFRB (Homo sapiens, UniProt P09619); assay: KINOMEscan competition-binding assay
T9 construct: purchased DiscoverRx (KINOMEscan service)
Experimental: as §2

Erbb2 = molecular target: T10, Erbb2 (Homo sapiens, UniProt P04626); assay: KINOMEscan competition-binding assay
T10 construct: purchased DiscoverRx (KINOMEscan service)
T10 sequence (P04626 23-1255): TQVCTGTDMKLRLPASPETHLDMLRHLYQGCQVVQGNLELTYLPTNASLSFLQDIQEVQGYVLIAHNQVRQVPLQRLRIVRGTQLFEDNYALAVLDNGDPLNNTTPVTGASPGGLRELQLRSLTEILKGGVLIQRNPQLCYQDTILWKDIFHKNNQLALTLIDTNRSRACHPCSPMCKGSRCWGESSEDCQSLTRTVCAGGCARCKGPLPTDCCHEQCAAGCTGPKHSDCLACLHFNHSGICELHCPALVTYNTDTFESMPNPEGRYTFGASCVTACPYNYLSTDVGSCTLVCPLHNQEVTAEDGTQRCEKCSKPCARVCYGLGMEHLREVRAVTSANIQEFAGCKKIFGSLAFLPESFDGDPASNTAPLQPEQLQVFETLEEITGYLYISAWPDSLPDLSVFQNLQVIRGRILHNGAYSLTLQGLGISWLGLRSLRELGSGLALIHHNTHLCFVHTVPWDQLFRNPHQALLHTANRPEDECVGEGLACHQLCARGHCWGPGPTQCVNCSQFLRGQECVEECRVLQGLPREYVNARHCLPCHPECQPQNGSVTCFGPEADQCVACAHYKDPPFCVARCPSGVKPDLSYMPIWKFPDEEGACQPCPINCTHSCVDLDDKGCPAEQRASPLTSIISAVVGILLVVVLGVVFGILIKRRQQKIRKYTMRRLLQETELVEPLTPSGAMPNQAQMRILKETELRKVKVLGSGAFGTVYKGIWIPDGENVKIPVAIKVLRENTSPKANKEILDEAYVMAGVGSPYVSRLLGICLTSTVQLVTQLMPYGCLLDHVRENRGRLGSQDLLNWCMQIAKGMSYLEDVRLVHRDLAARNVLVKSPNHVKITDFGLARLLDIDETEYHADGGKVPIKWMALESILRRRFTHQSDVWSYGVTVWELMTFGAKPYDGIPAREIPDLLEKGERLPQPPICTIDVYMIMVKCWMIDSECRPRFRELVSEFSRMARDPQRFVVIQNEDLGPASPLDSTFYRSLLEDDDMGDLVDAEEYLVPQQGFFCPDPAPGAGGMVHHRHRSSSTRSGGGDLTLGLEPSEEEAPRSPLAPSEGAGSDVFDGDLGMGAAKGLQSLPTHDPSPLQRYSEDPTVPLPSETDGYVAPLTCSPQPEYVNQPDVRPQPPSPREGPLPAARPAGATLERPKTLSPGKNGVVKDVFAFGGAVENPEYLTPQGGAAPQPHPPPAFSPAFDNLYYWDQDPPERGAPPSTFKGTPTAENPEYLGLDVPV
Experimental: as §2

[5] = tested on: LC3B-I to LC3B-II conversion in RT-112 cells; assay: Western blot of autophagy marker LC3B; format: cell-based
Experimental: as §1

MDA-MB-231 cells = assay: MTT cell viability assay; format: cell-based; conditions: Homo sapiens, MDA-MB-231 (breast), 72 h
Experimental: as §3

MCF-7 cells = assay: MTT cell viability assay; format: cell-based; conditions: Homo sapiens, MCF7, MCF-7 (breast), 72 h
Experimental: as §3

[6] = tested on: FGFR-dependent versus FGFR-independent cells; assay: MTT cell viability assay, mean over cell line panel; format: cell-based
FUDDLS cells = assay: MTT cell viability assay; format: cell-based; conditions: Homo sapiens, FUDDLS (sarcoma), 72 h
Experimental: as §3

A549 cells = assay: MTT cell viability assay; format: cell-based; conditions: Homo sapiens, A549 (lung), 72 h
Experimental: as §3

CCN1CCN(c2ccc(Nc3cc(N(C)C(=O)Nc4c(Cl)c(OC)c(Cl)c(OC)c4Cl)ncn3)cc2)CC1 [MPT0L090]
Viability (% of control cells) Hep3B (5 μM) (Hep3B cells): 47.1 % of control cells
Viability (% of control cells) PLC5/PRF/5 (5 μM) (PLC/PRF/5 cells): 72.6 % of control cells
Viability (% of control cells) RT-112 (5 μM) (RT-112 cells [1]): 52.6 % of control cells
Viability (% of control cells) RT-112 (10 μM) (RT-112 cells [1]): 12.7 % of control cells
Viability (% of control cells) SNU-16 (5 μM) (SNU-16 cells): 27.5 % of control cells

CCN1CCN(c2ccc(Nc3ncnc(N(C)C(=O)Nc4c(Cl)c(OC)c(Cl)c(OC)c4Cl)n3)cc2)CC1 [MPT0L145]
senescence (β-galactosidase activity) (RT-112 cells [2]): no appreciable senescence
IC50 (HepG2 cells): 1180 ± 160 nM
auto-phosphorylation of FGFR1 and FGFR3 and docking protein FRS2 ([3]; 1 h): exerted inhibitory activity
phosphorylation of ERK and AKT ([3]; 8 h): fully repressed
IC50 (RT4 cells): 4 ± 0.58 µM
IC50 (T24 cells): 6 ± 0.5 µM
G0/G1 cell cycle arrest (RT-112 cells [4]; 4 μM, 24 h): induced G0/G1 cell cycle arrest to a dramatic extent
accumulation of the sub-G1 phase (apoptotic cell death) (RT-112 cells [4]): did not promote accumulation of the sub-G1 phase
IC50 (KMS-11 cells): 2050 ± 110 nM
Viability (% of control cells) Hep3B (5 μM) (Hep3B cells): 66.2 % of control cells
IC50 (RPMI-8226 cells): 8.51 ± 1.77 µM
IC50 (HCT-116 cells): 6.12 ± 0.01 µM
IC50 (PLC/PRF/5 cells; Homo sapiens, PLC/PRF/5 (liver)): 1480 ± 300 nM
Viability (% of control cells) PLC5/PRF/5 (5 μM) (PLC/PRF/5 cells): 20.6 % of control cells
tumor growth inhibition (% TGI) (RT-112 tumor xenografts; 5 mg/kg, qd): 61.4%
tumor growth inhibition (% TGI) (RT-112 tumor xenografts; 10 mg/kg, qd): 74.6%
safety from assessment of body weight loss after treatment (RT-112 tumor xenografts; compared with cisplatin): better safety
Kd (CSF1R): 340 nM
Kd (FLT3): 1300 nM
Kd (FGFR1): 130 nM
Kd (FGFR2): 670 nM
Kd (TYK2): 660 nM
Kd (VEGFR2): 3.1 µM
Kd (FGFR4): 7.5 µM
Kd (FGFR3): 270 nM
Kd (PDGFRB): 680 nM
Kd (Erbb2): 10 µM
conversion of LC3B-I to LC3B-II [5]: induced the conversion of LC3B-I to LC3B-II in a time- and concentration-dependent manner
IC50 (MDA-MB-231 cells): 6.04 ± 0.26 µM
IC50 (MCF-7 cells): 5.98 ± 0.68 µM
IC50 (RT-112 cells [1]; Homo sapiens, RT-112 (bladder)): 1630 ± 10 nM
Viability (% of control cells) RT-112 (5 μM) (RT-112 cells [1]): 33.4 % of control cells
Viability (% of control cells) RT-112 (10 μM) (RT-112 cells [1]): 8.5 % of control cells
IC50 ([6]; mean over FGFR-dependent cell lines, read-out: mean IC50 in FGFR-dependent cells): 1.83 µM
IC50 ([6]; mean over FGFR-independent cell lines, read-out: mean IC50 in FGFR-independent cells): 6.74 µM
IC50 (FUDDLS cells): 4.74 ± 0.49 µM
IC50 (SNU-16 cells; Homo sapiens, SNU-16 (gastric)): 650 ± 70 nM
Viability (% of control cells) SNU-16 (5 μM) (SNU-16 cells): 36.9 % of control cells
IC50 (A549 cells): 5.97 ± 0.1 µM

COc1c(Cl)c(NC(=O)N(C)c2cc(-c3ccco3)ncn2)c(Cl)c(OC)c1Cl [MPT0L154]
Viability (% of control cells) RT-112 (10 μM) (RT-112 cells [1]): 76.1 % of control cells

COc1c(Cl)c(NC(=O)N(C)c2cc(-c3cccc([N+](=O)[O-])c3)ncn2)c(Cl)c(OC)c1Cl [MPT0L151]
Viability (% of control cells) RT-112 (10 μM) (RT-112 cells [1]): 63.8 % of control cells

COc1c(Cl)c(NC(=O)N(C)c2cc(-c3cccnc3)ncn2)c(Cl)c(OC)c1Cl [MPT0L147]
Viability (% of control cells) RT-112 (10 μM) (RT-112 cells [1]): 85.0 % of control cells

CC(=O)O[C@H]1C(=O)[C@@]2(C)[C@H]([C@H](OC(=O)c3ccccc3)[C@]3(O)C[C@H](OC(=O)[C@H](O)[C@@H](NC(=O)c4ccccc4)c4ccccc4)C(C)=C1C3(C)C)[C@]1(OC(C)=O)CO[C@@H]1C[C@@H]2O [paclitaxel]
accumulation of the sub-G1 phase (apoptotic cell death) (RT-112 cells [4]): induced pronounced apoptosis

COc1c(Cl)c(NC(=O)N(C)c2cc(-c3cccc(C#N)c3)ncn2)c(Cl)c(OC)c1Cl [MPT0L150]
Viability (% of control cells) RT-112 (10 μM) (RT-112 cells [1]): 75.0 % of control cells

N.N.[Cl][Pt][Cl] [cisplatin, reference compound]
tumor growth inhibition (% TGI) (RT-112 tumor xenografts; 5 mg/kg, qwk): 56.3%

COc1cccc2c1C(=O)c1c(O)c3c(c(O)c1C2=O)C[C@@](O)(C(=O)CO)C[C@@H]3O[C@H]1C[C@H](N)[C@H](O)[C@H](C)O1 [doxorubicin, reference compound]
senescence (β-galactosidase activity) (RT-112 cells [2]): increased β-galactosidase activity

COc1c(Cl)c(NC(=O)N(C)c2cc(-c3ccc(F)cc3)ncn2)c(Cl)c(OC)c1Cl [MPT0L155]
Viability (% of control cells) Hep3B (5 μM) (Hep3B cells): 72.8 % of control cells
Viability (% of control cells) PLC5/PRF/5 (5 μM) (PLC/PRF/5 cells): 55.3 % of control cells
Viability (% of control cells) RT-112 (5 μM) (RT-112 cells [1]): 92.6 % of control cells
Viability (% of control cells) RT-112 (10 μM) (RT-112 cells [1]): 44.4 % of control cells
Viability (% of control cells) SNU-16 (5 μM) (SNU-16 cells): 80.5 % of control cells

COc1c(Cl)c(NC(=O)N(C)c2cc(-c3ccc(Cl)cc3)ncn2)c(Cl)c(OC)c1Cl [MPT0L156]
Viability (% of control cells) Hep3B (5 μM) (Hep3B cells): 54.3 % of control cells
Viability (% of control cells) PLC5/PRF/5 (5 μM) (PLC/PRF/5 cells): 44.4 % of control cells
Viability (% of control cells) RT-112 (5 μM) (RT-112 cells [1]): 98.3 % of control cells
Viability (% of control cells) RT-112 (10 μM) (RT-112 cells [1]): 34.8 % of control cells
Viability (% of control cells) SNU-16 (5 μM) (SNU-16 cells): 76.7 % of control cells

COc1c(Cl)c(NC(=O)N(C)c2cc(-c3ccc(C#N)cc3)ncn2)c(Cl)c(OC)c1Cl [MPT0L152]
Viability (% of control cells) RT-112 (10 μM) (RT-112 cells [1]): 55.3 % of control cells

CCN1CCN(c2ccc(-c3cc(N(C)C(=O)Nc4c(Cl)c(OC)c(Cl)c(OC)c4Cl)ncn3)cc2)CC1 [MPT0L182]
Viability (% of control cells) Hep3B (5 μM) (Hep3B cells): 96.3 % of control cells
Viability (% of control cells) PLC5/PRF/5 (5 μM) (PLC/PRF/5 cells): 78.3 % of control cells
Viability (% of control cells) RT-112 (5 μM) (RT-112 cells [1]): 95.6 % of control cells
Viability (% of control cells) RT-112 (10 μM) (RT-112 cells [1]): 8.6 % of control cells
Viability (% of control cells) SNU-16 (5 μM) (SNU-16 cells): 63.2 % of control cells
